According to patent US10138207B2, “Benzomorphan analogs and the use thereof” (priority 2012, dated 2018):
Where two headings read alike, the source gives them in different places.

Key:
κ opioid receptor [1] = biological target: T1, κ opioid receptor (Homo sapiens, UniProt P41145); test: biochemical; assay type: binding; design: expressed in transfected cells; host or cells: HEK 293 (in-house membrane prep); settings: HEK-293 or CHO cells; bound in μM
μ-opioid receptor = μ-opioid receptor (Homo sapiens, UniProt P35372); test: μ-opioid receptor [35S]GTPγS functional assay, U-2 OS cells; assay type: biochemical; design: expressed in transfected cells; host or cells: U-2 OS; settings: for Emax / GTPγS μ Emax: relative to DAMGO
μ-opioid receptor, sequence (P35372 whole entry, species assumed): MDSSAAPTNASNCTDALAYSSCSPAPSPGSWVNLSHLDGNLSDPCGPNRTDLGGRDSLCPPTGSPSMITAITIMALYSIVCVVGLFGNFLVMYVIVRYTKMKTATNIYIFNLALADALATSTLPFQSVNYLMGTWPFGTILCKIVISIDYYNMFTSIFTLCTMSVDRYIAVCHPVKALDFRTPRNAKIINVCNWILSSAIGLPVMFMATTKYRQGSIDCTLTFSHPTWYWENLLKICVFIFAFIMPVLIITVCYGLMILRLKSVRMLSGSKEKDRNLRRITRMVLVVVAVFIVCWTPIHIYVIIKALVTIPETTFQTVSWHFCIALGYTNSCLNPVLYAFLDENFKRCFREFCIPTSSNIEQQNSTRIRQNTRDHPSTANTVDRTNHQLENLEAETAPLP

κ opioid receptor [2] = biological target: T1, κ opioid receptor; test: κ-opioid receptor [35S]GTPγS functional assay, U-2 OS cells; assay type: biochemical; design: expressed in transfected cells; host or cells: U-2 OS (in-house membranes); settings: for Emax: read-out: GTPγS κ Emax
Procedure: Membranes from recombinant HEK-293 cells, CHO or U-2 OS cells expressing the recombinant human κ opioid receptor (κ) were prepared by lysing cells in ice cold hypotonic buffer (2.5 mM MgCl2, 50 mM HEPES, pH 7.4) (10 mL/10 cm dish) followed by homogenization with a tissue grinder/Teflon pestle. […] Membranes were collected by centrifugation at 30,000×g for 15 min at 4° C. and pellets were resuspended in hypotonic buffer to a final concentration of 1-3 mg/mL. Protein concentrations were determined using the BioRad protein assay reagent with bovine serum albumen as standard. Aliquots of κ receptor membranes were stored at −80° C.
Plates were incubated for 30 min at a temperature of about 25° C. with shaking.

[3] = U-2 OS cells, read-out: GTPγS μ EC50
[4] = U-2 OS cells, read-out: GTPγS μ Emax
[5] = U-2 OS cells, read-out: GTPγS κ EC50
[6] = U-2 OS cells, relative to U69,593
[7] = U-2 OS cells, bound in μM, read-out: GTPγS κ EC50

T1 sequence (P41145 whole entry): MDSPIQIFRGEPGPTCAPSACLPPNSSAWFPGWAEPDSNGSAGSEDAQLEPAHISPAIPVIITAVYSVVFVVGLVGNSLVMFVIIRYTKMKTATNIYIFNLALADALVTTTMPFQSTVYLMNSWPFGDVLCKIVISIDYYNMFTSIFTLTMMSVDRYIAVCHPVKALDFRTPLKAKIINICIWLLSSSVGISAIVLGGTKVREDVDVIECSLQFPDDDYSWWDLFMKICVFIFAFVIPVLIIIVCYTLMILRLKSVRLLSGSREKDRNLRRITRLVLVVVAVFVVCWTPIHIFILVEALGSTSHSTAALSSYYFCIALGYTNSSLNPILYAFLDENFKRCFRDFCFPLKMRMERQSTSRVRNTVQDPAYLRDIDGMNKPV

Structure (SMILES) | EC50 (μ-opioid receptor; [3]) | Emax (μ-opioid receptor; [4]) | EC50 (κ opioid receptor [2]; [5]) | Emax (κ opioid receptor [2]; [6]) | other results
COc1ccc2c(c1)C1(C)CCN(C)C(C2)/C1=C\C(=O)O (stereo not drawn) [Compound 13, (Z)-2-(8-methoxy-3,6-dimethyl-1,2,3,4,5,6-hexahydro-2,6-methanobenzo[d]azocin-11-ylidene)acetic acid] | – | – | – | – | Ki (κ opioid receptor [1]): > 20 µM
CN1CC[C@@]2(C)c3cc(O)ccc3C[C@@H]1[C@H]2N(C)C(=O)Cc1ccccc1 [Compound 117, N-((2R,6S,11S)-8-hydroxy-3,6-dimethyl-1,2,3,4,5,6-hexahydro-2,6-methanobenzo[d]azocin-11-yl)-N-methyl-2-phenylacetamide] | 0.822 ± 0.0939 µM | 93.7 ± 5.36% | 3390 ± 439 nM | 79.7 ± 5.46% | –
CN1CC[C@@]2(C)c3cc(O)ccc3C[C@@H]1[C@@H]2NCCc1ccc(F)cc1 [Compound 101, (2R,6S,11R)-11-((4-fluorophenethyl)amino)-3,6-dimethyl-1,2,3,4,5,6-hexahydro-2,6-methanobenzo[d]azocin-8-ol] | – | – | – | 66.7 ± 1.2% | EC50 (μ-opioid receptor; GTPγS μ EC50, U-2 OS cells): 0.00373 ± 0.00021 µM; EC50 (κ opioid receptor [2]): 1080 ± 113 nM
C[C@]12CCN(CC3CC3)[C@H](Cc3ccc(O)cc31)[C@@H]2NCCc1ccc(S(N)(=O)=O)cc1 [Compound 96, 4-(2-(((2R,6S,11R)-3-(cyclopropylmethyl)-8-hydroxy-6-methyl-1,2,3,4,5,6-hexahydro-2,6-methanobenzo[d]azocin-11-yl)amino)ethyl)benzenesulfonamide] | 0.00601 ± 0.00051 µM | 32.3 ± 0.88% | 6.41 ± 1.67 nM | – | –
CN1CC[C@@]2(C)c3cc(O)ccc3C[C@@H]1[C@H]2NCCNC(=O)OC(C)(C)C [Compound 112, tert-butyl (2-(((2R,6S,11S)-8-hydroxy-3,6-dimethyl-1,2,3,4,5,6-hexahydro-2,6-methanobenzo[d]azocin-11-yl)amino)ethyl)carbamate] | 0.00756 ± 0.00045 µM | 83.7 ± 1.45% | 23.4 ± 7.81 nM | 26.3 ± 0.88% | –
CN1CC[C@@]2(C)c3cc(O)ccc3C[C@@H]1[C@@H]2NCCc1ccc(Cl)c(Cl)c1 [Compound 98, (2R,6S,11R)-11-((3,4-dichlorophenethyl)amino)-3,6-dimethyl-1,2,3,4,5,6-hexahydro-2,6-methanobenzo[d]azocin-8-ol] | 0.0003 ± 2.7e-05 µM | 104 ± 3.76% | 28.6 ± 3.21 nM | 95.3 ± 3.84% | –
CN1CC[C@@]2(C)c3cc(O)ccc3C[C@@H]1[C@H]2N(C)CCc1ccc(S(N)(=O)=O)cc1 [Compound 109, 4-(2-(((2R,6S,11S)-8-hydroxy-3,6-dimethyl-1,2,3,4,5,6-hexahydro-2,6-methanobenzo[d]azocin-11-yl)(methyl)amino)ethyl)benzenesulfonamide] | 0.029 ± 0.00136 µM | 100 ± 3.18% | 192 ± 41.6 nM | 36.7 ± 0.67% | –
CN1CC[C@@]2(C)c3cc(O)ccc3C[C@@H]1[C@H]2NCCc1ccc(Cl)c(Cl)c1 [Compound 99, (2R,6S,11S)-11-((3,4-dichlorophenethyl)amino)-3,6-dimethyl-1,2,3,4,5,6-hexahydro-2,6-methanobenzo[d]azocin-8-ol] | 0.00013 ± 1e-05 µM | 71 ± 2% | 1.44 ± 0.053 nM | 72.3 ± 4.67% | –
CN1CC[C@@]2(C)c3cc(O)ccc3C[C@@H]1[C@H]2NCCCNC(=O)OC(C)(C)C [Compound 111, tert-butyl (3-(((2R,6S,11S)-8-hydroxy-3,6-dimethyl-1,2,3,4,5,6-hexahydro-2,6-methanobenzo[d]azocin-11-yl)amino)propyl)carbamate] | 0.00223 ± 0.00012 µM | 64 ± 4% | 42.6 ± 7.64 nM | 22.7 ± 2.33% | –
CN1CC[C@@]2(C)c3cc(O)ccc3C[C@@H]1[C@@H]2N(C)C(=O)c1ccsc1 [Compound 124, N-((2R,6S,11R)-8-hydroxy-3,6-dimethyl-1,2,3,4,5,6-hexahydro-2,6-methanobenzo[d]azocin-11-yl)-N-methylthiophene-3-carboxamide] | 0.0141 ± 0.00048 µM | 98 ± 3.06% | 680 ± 67.7 nM | 77.3 ± 4.63% | –
CN(C(=O)c1ccsc1)[C@@H]1[C@H]2Cc3ccc(O)cc3[C@]1(C)CCN2CC1CC1 [Compound 114, N-((2R,6S,11S)-3-(cyclopropylmethyl)-8-hydroxy-6-methyl-1,2,3,4,5,6-hexahydro-2,6-methanobenzo[d]azocin-11-yl)-N-methylthiophene-3-carboxamide] | 0.152 ± 0.0168 µM | 20.7 ± 0.67% | 18.9 ± 2.01 nM | 107 ± 4.36% | –
CN1CC[C@@]2(C)c3cc(O)ccc3C[C@@H]1[C@@H]2N(C)CC1CCN(C(=O)OC(C)(C)C)CC1 [Compound 108, tert-butyl 4-((((2R,6S,11R)-8-hydroxy-3,6-dimethyl-1,2,3,4,5,6-hexahydro-2,6-methanobenzo[d]azocin-11-yl)(methyl)amino)methyl)piperidine-1-carboxylate] | 0.00039 ± 0.00011 µM | – | 3.27 ± 0.69 nM | 18.8 ± 1.25% | GTPγS μ Emax (μ-opioid receptor; U-2 OS cells): 80.80 ± 2.50%
CN1CC[C@@]2(C)c3cc(O)ccc3C[C@@H]1[C@H]2NCCc1c[nH]c2ccccc12 [Compound 110, (2R,6S,11S)-11-((2-(1H-indol-3-yl)ethyl)amino)-3,6-dimethyl-1,2,3,4,5,6-hexahydro-2,6-methanobenzo[d]azocin-8-ol] | 0.0116 ± 0.00155 µM | 92.3 ± 2.03% | 25.4 ± 3.38 nM | 37.7 ± 2.03% | –
CN1CC[C@@]2(C)c3cc(O)ccc3C[C@@H]1[C@H]2N(C)C(=O)c1ccc(C(F)(F)F)cn1 [Compound 126, N-((2R,6S,11S)-8-hydroxy-3,6-dimethyl-1,2,3,4,5,6-hexahydro-2,6-methanobenzo[d]azocin-11-yl)-N-methyl-5-(trifluoromethyl)picolinamide] | 0.147 ± 0.00947 µM | 103 ± 2.4% | 1470 ± 91.3 nM | 63.7 ± 3.93% | –
CN1CC[C@@]2(C)c3cc(O)ccc3C[C@@H]1[C@@H]2NC(=O)Nc1nc2cc(F)ccc2s1 [Compound 139, 1-(5-fluorobenzo[d]thiazol-2-yl)-3-((2R,6S,11R)-8-hydroxy-3,6-dimethyl-1,2,3,4,5,6-hexahydro-2,6-methanobenzo[d]azocin-11-yl)urea] | 0.0125 ± 0.00218 µM | 87 ± 3.08% | 91.8 ± 4.88 nM | 48 ± 5.13% | –
C[C@]12CCN(CC3CC3)[C@H](Cc3ccc(O)cc31)[C@@H]2NS(=O)(=O)c1cccc(C(F)(F)F)c1 [Compound 129, N-((2R,6S,11R)-3-(cyclopropylmethyl)-8-hydroxy-6-methyl-1,2,3,4,5,6-hexahydro-2,6-methanobenzo[d]azocin-11-yl)-3-(trifluoromethyl)benzenesulfonamide] | 0.00914 ± 0.00119 µM | 20 ± 1.15% | 0.78 ± 0.07 nM | 97.3 ± 1.86% | –
C[C@]12CCN(CC3CC3)[C@H](Cc3ccc(O)cc31)[C@H]2NC(=O)c1ccsc1 [Compound 113, N-((2R,6S,11S)-3-(cyclopropylmethyl)-8-hydroxy-6-methyl-1,2,3,4,5,6-hexahydro-2,6-methanobenzo[d]azocin-11-yl)thiophene-3-carboxamide] | 0.00045 ± 3.6e-05 µM | 68.7 ± 3.71% | 0.052 ± 0.013 nM | 99.2 ± 1.65% | –
CC(C)CCC(=O)N(C)[C@H]1[C@H]2Cc3ccc(O)cc3[C@]1(C)CCN2C [Compound 116, N-((2R,6S,11R)-8-hydroxy-3,6-dimethyl-1,2,3,4,5,6-hexahydro-2,6-methanobenzo[d]azocin-11-yl)-N,4-dimethylpentanamide] | 0.00312 ± 0.00015 µM | 104 ± 2.96% | 69.4 ± 5.37 nM | 56.3 ± 3.93% | –
CN1CC[C@@]2(C)c3cc(O)ccc3C[C@@H]1[C@H]2NCC1CCN(C(=O)OC(C)(C)C)CC1 [Compound 106, tert-butyl 4-((((2R,6S,11S)-8-hydroxy-3,6-dimethyl-1,2,3,4,5,6-hexahydro-2,6-methanobenzo[d]azocin-11-yl)amino)methyl)piperidine-1-carboxylate] | – | – | – | – | EC50 (μ-opioid receptor; GTPγS μ EC50, U-2 OS cells, bound in μM): > 20 µM; Emax (μ-opioid receptor; read-out: GTPγS μ Emax, U-2 OS cells): 2.5%; EC50 (κ opioid receptor [2]): > 20000 nM; Emax (κ opioid receptor [2]): 1%
CN1CC[C@@]2(C)c3cc(O)ccc3C[C@@H]1[C@@H]2NCCc1cccs1 [Compound 104, (2R,6S,11R)-3,6-dimethyl-11-((2-(thiophen-2-yl)ethyl)amino)-1,2,3,4,5,6-hexahydro-2,6-methanobenzo[d]azocin-8-ol] | 0.0513 ± 0.00526 µM | 105.3 ± 0.88% | 1260 ± 229 nM | 79.7 ± 5.9% | –
CN1CC[C@@]2(C)c3cc(O)ccc3C[C@@H]1[C@@H]2NCC1CCN(C(=O)OC(C)(C)C)CC1 [Compound 107, tert-butyl 4-((((2R,6S,11R)-8-hydroxy-3,6-dimethyl-1,2,3,4,5,6-hexahydro-2,6-methanobenzo[d]azocin-11-yl)amino)methyl)piperidine-1-carboxylate] | 0.0462 ± 0.00035 µM | – | – | 1% | GTPγS μ Emax (μ-opioid receptor; U-2 OS cells): 58.30 ± 0.33%; EC50 (κ opioid receptor [2]; [7]): > 20000 nM
C[C@]12CCN(CC3CC3)[C@H](Cc3ccc(O)cc31)[C@H]2NCCc1ccc(S(N)(=O)=O)cc1 [Compound 97, 4-(2-(((2R,6S,11S)-3-(cyclopropylmethyl)-8-hydroxy-6-methyl-1,2,3,4,5,6-hexahydro-2,6-methanobenzo[d]azocin-11-yl)amino)ethyl)benzenesulfonamide] | – | 2.5% | – | 0% | EC50 (μ-opioid receptor; U-2 OS cells, bound in μM, read-out: GTPγS μ EC50): > 20 µM; EC50 (κ opioid receptor [2]; [7]): > 20000 nM
CN1CC[C@@]2(C)c3cc(O)ccc3C[C@@H]1[C@H]2N(C)S(=O)(=O)c1cccc(C(F)(F)F)c1 [Compound 131, N-((2R,6S,11S)-8-hydroxy-3,6-dimethyl-1,2,3,4,5,6-hexahydro-2,6-methanobenzo[d]azocin-11-yl)-N-methyl-3-(trifluoromethyl)benzenesulfonamide] | 0.29 ± 0.00532 µM | 69 ± 1% | – | 0% | EC50 (κ opioid receptor [2]; [7]): > 20000 nM
